Experimental data as given in patent US8119627B2 (Sterix Limited, priority 2005, dated 2012).
Where a name gives a salt, the structure may show the parent alone.

Columns and labels:
[1] = biological target: T1, human 17β-HSD3 (Homo sapiens, UniProt P37058); assay: 17β-Hydroxysteroid dehydrogenase Type 3 activity in stably transfected 293-EBNA cells (3H-androstenedione to testosterone conversion); type: cell-based; settings: 10 μM test compound; 293-EBNA cells stably transfected with 17β-HSD Type 3; 2-3 nM 3H-androstenedione; 2 hours
T1 construct: expressed in transfected cells; host or cells: 293-EBNA cells (human), stably transfected
T1 sequence (P37058 1-310): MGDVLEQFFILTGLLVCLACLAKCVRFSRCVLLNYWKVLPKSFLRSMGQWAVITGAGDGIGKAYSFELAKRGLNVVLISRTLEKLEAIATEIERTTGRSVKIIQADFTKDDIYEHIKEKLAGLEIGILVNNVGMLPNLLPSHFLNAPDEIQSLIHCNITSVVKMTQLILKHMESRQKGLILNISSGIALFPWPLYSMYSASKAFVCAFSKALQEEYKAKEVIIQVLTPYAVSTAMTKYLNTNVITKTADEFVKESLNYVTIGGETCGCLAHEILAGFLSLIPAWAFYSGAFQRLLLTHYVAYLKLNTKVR
Experimental: Assay Protocol—17β-Hydroxysteroid Dehydrogenase Type 3 Activity in the Presence of Regulatory Agents
293-EBNA cells stably transfected with 17β-HSD Type 3 were plated at 50,000 cells/well in 24 well plates in complete growth medium. After 48 hours 2-3 nM ^3H-Androstenedione in assay medium (500 ml MEME medium with 5 ml 100× Pen/Strep, 5 ml 100×L-Glutamine, 5 ml 100×NEAA and 5 ml 7.5% sodium bicarbonate solution) was added with or without test compound at 1.5 ml/well (triplicate), and the cells incubated at 37° C.
Two hours later 1 ml medium was removed from each well and placed in a 125×16 mm glass test tube containing 25 μl of recovery solution (5000 dpm ^14C-Testosterone and 25 μg unlabelled Testosterone). Ether (4 ml) was added and the tubes vortexed at high speed for 2×30 sec. After the samples had settled into two phases they were snap-frozen in a dry ice/methanol bath. The upper organic phase was decanted into 75×12 mm tubes and evaporated to dryness under an airstream using a sample concentrator (TECHNE) at 40° C. The samples were resuspended in ether (8 drops, then a further 3), spotted onto silica 60 F254 20 cm×20 cm TLC plates, and separated using a 4:1 v/v dichloromethane:ethyl acetate mobile phase.
After drying the plates, the major spots were marked under a UV lamp, cut out, and placed in individual scintillation vials containing 0.5 ml methanol. These were then shaken lightly and allowed to stand for 15 min before adding 10 ml of EcoScint A (scintillation fluid) to each tube along with 0.5 ml assay medium, and counted in a scintillation spectrometer (Beckman) using a program for dual [^3H/^14C] isotopes. The number of cells/well was then counted using a Coulter counter (Beckman).
The inhibitory activity of the test compounds is then assessed by calculating the amount of product formed correcting for crossover between isotope counts, recovery, dilution and non-enzymatic degradation (fmol/hr/million cells) with and without inhibitor, (% inhibition).
Compounds were tested at 10 μM for inhibition of human 17β-HSD3 with typically […] human 293-EBNA cells/well.

With `O=C(c1ccccc1)N1CCC(Nc2ccccc2Oc2ccc(Cl)cc2)CC1` the inhibition at 10 µM [1] was greater than 60%.

Work on `O=C(Nc1ccccc1Oc1ccc(Cl)cc1Cl)C1CCN(S(=O)(=O)c2cc(Cl)ccc2Cl)CC1` yielded a melting point of 194 to 196 °C.

`CC(C)C(=O)N1CCC(NC(=O)c2ccccc2Oc2ccc(Cl)cc2Cl)CC1` gave a melting point of 51 to 54 °C.

`O=C(NC1CCN(C(=O)c2ccccc2)CC1)c1ccccc1Oc1ccc(Cl)cc1Cl` showed a melting point of 63 to 66 °C.

With `CC(=O)N1CCC(C(=O)Nc2ccccc2Oc2cc(Cl)cc(Cl)c2)CC1` [STX1604, 1-Acetyl-piperidine-4-carboxylic acid [2-(3,5-dichloro-phenoxy)-phenyl]-amide] the inhibition at 10 µM [1] was 20 to 60%.

With `O=C(Nc1ccccc1Oc1cc(Cl)cc(Cl)c1)C1CCN(C(=O)c2ccccc2)CC1` [STX1605, 1-Benzoyl-piperidine-4-carboxylic acid [2-(3,5-dichloro-phenoxy)-phenyl]-amide] the inhibition at 10 µM [1] was 20 to 60%.

`CC(=O)N1CCC(C(=O)Nc2ccccc2Oc2ccc(C(F)(F)F)cc2)CC1` [STX1606, 1-Acetyl-piperidine-4-carboxylic acid [2-(4-trifluoromethyl-phenoxy)-phenyl]-amide] showed an inhibition at 10 µM [1] of 20 to 60%.

`O=C(Nc1ccccc1Oc1ccc(C(F)(F)F)cc1)C1CCN(C(=O)c2ccccc2)CC1` [STX1607, 1-Benzoyl-piperidine-4-carboxylic acid [2-(4-trifluoromethyl-phenoxy)-phenyl]-amide] showed an inhibition at 10 µM [1] of 20 to 60%.

In the case of `O=C(Nc1ccccc1Oc1ccc(Cl)cc1Cl)C1CCN(C(=O)c2ccccc2)CC1` [STX1613, 1-Benzoylpiperidine-4-carboxylic acid [2-(2,4-dichloro-phenoxy)phenyl]amide], the inhibition at 10 µM [1] is reported as 20 to 60% and the melting point is reported as 176 to 177 °C.

With `CC(=O)N1CCC(C(=O)Nc2ccccc2Oc2ccc(Cl)cc2Cl)CC1` [STX1614, 1-Acetylpiperidine-4-carboxylic acid [2-(2,4-dichlorophenoxy)phenyl]amide] the inhibition at 10 µM [1] was greater than 60% and the melting point was 194 to 196 °C.

Compound `O=C(Nc1ccccc1Oc1ccc(Cl)cc1)C1CCN(C(=O)c2ccccc2)CC1` [STX1615, 1-Benzoylpiperidine-4-carboxylic acid [2-(4-chlorophenoxy)phenyl]amide] has an inhibition at 10 µM [1] of less than 20% and a melting point of 158 to 160 °C.

`CC(=O)N1CCC(Nc2ccccc2Oc2ccc(Cl)cc2Cl)CC1` [STX1616, 1-{4-[2-(2,4-Dichlorophenoxy)phenylamino]piperidin-1-yl}ethanone] gave an inhibition at 10 µM [1] greater than 60% and a melting point of 145 to 146 °C.

Work on `CC(=O)N1CCC(C(=O)Nc2ccccc2Oc2ccc(Cl)cc2)CC1` [STX1617, 1-Acetylpiperidine-4-carboxylic acid [2-(4-chlorophenoxy)phenyl]amide] yielded an inhibition at 10 µM [1] of 20 to 60% and a melting point of 195 to 196 °C.

`O=C(c1ccccc1)N1CCC(Nc2ccccc2Oc2ccc(Cl)cc2Cl)CC1` [STX1623, {4-[2-(2,4-Dichlorophenoxy)phenylamino]piperidin-1-yl}phenylmethanone] gave an inhibition at 10 µM [1] greater than 60%.

In the case of `CC(=O)N1CCC(C(=O)Nc2ccccc2Oc2ccc(OC(F)(F)F)cc2)CC1` [STX1624, 1-Acetyl-piperidine-4-carboxylic acid [2-(4-trifluoromethoxy-phenoxy)-phenyl]-amide], the inhibition at 10 µM [1] is reported as 20 to 60%.

`O=C(Nc1ccccc1Oc1ccc(OC(F)(F)F)cc1)C1CCN(C(=O)c2ccccc2)CC1` [STX1625, 1-Benzoyl-piperidine-4-carboxylic acid [2-(4-trifluoromethoxy-phenoxy)-phenyl]-amide] showed an inhibition at 10 µM [1] of 20 to 60%.

Compound `CC(=O)N1CCC(Nc2ccccc2Oc2ccc(Cl)cc2)CC1` [STX1629, 1-{4-[2-(4-chlorophenoxy)phenylamino]-piperidin-1-yl}-ethanone] has an inhibition at 10 µM [1] greater than 60%.

With `CC(C)(C)C(=O)N1CCC(Nc2ccccc2Oc2ccc(Cl)cc2)CC1` [STX1631, 1-{4-[2-(4-chlorophenoxy)phenylamino]-piperidin-1-yl}-2,2-dimethylpropan-1-one] the inhibition at 10 µM [1] was 20 to 60%.

For `CC(=O)N1CCCC(Nc2ccccc2Oc2ccc(Cl)cc2)CC1` (stereo not shown) [STX1762, 1-(4-(2-(4-chlorophenoxy)phenylamino)azepan-1-yl)ethanone], the inhibition at 10 µM [1] was greater than 60%.

In the case of `O=C(c1ccco1)N1CCC(Nc2ccccc2Oc2ccc(Cl)cc2Cl)CC1` [STX1779, {4-[2-(2,4-Dichloro-phenoxy)-phenylamino]-piperidin-1-yl}-furan-2-yl-methanone], the inhibition at 10 µM [1] is reported as 20 to 60%.

Work on `CC(=O)NC(CC(=O)Nc1ccccc1Oc1ccc(Cl)cc1)c1ccccc1` (stereo not shown) [STX1858, N-[2-(4-chlorophenoxy)phenyl]-3-acetamido-3-phenylpropanamide] yielded an inhibition at 10 µM [1] of less than 20%.

`CC(=O)NCCC(=O)Nc1ccccc1Oc1ccc(Cl)cc1` [STX1859, N-[2-(4-chlorophenoxy)phenyl]-3-acetamidopropanamide] gave an inhibition at 10 µM [1] of less than 20%.

With `CC(=O)N1CCC(Nc2ccccc2-c2ccc(Cl)cc2)CC1` [STX2044, 1-[4-(4′-Chlorobiphenyl-2-ylamino)piperidin-1-yl]ethanone] the inhibition at 10 µM [1] was 20 to 60%.

Work on `CC(=O)N1CCC(Nc2ccccc2-c2ccccc2Oc2ccccc2)CC1` [STX2048, 1-[4-(2′-Phenoxybiphenyl-2-ylamino)piperidin-1-yl]ethanone hydrochloride] yielded an inhibition at 10 µM [1] of 20 to 60%.

Work on `CC(=O)N1CCC(Nc2ccccc2Oc2ccc(Cl)cc2)c2ccccc21` (stereo not shown) [STX2138] yielded an inhibition at 10 µM [1] of 20 to 60%.

With `CC(=O)N1CCCC(Nc2ccccc2Oc2ccc(Cl)cc2)c2ccccc21` (stereo not shown) [STX2171, 1-Acetyl-5-[2-(4-Chloro-phenoxy)-phenylamino]-2,3,4,5-tetrahydro-benzo[b]azepine] the inhibition at 10 µM [1] was greater than 60%.

With `CC(=O)N1CCC(Nc2ccccc2Oc2ccc(Cl)cc2)CC1c1ccccc1` (stereo not shown) [STX2419, 1-(4-(2-(4-Chlorophenoxy)phenylamino)-2-phenylpiperidin-1-yl)ethanone] the inhibition at 10 µM [1] was 20 to 60%.

Compound `CC(=O)N1CCC(Nc2ccccc2Oc2ccc(Cl)cc2)CC1C(C)C` (stereo not shown) [STX2523, 1-(4-(2-(4-Chlorophenoxy)phenylamino)-2-iso-propylpiperidin-1-yl)ethanone] has an inhibition at 10 µM [1] greater than 60%.

With `CC(=O)N1CC(N(Cc2ccccc2Oc2ccc(Cl)cc2)C(C)=O)Cc2ccccc21` (stereo not shown) [STX2525, N-(1-Acetyl-1,2,3,4-tetrahydro-quinolin-3-yl)-N-[2-(4-chloro-phenoxy)-benzyl]-acetamide] the inhibition at 10 µM [1] was 20 to 60%.
